Patent EP0314302A2, “Herbicidal o-carbomethoxy-sulfonylureas” (E.I. DU PONT DE NEMOURS AND COMPANY, priority 1987, dated 1989)

How the values were obtained:
Polygonum convolvulus = assay: Test 1 greenhouse, preemergence; assay type: in vivo; settings: 21 days, scale 0-100
Description: (§1) Seeds of Bromus tectorum, Kochia scoparia, Salsoa kali, Avena fatua, Convolvulus arvensis, Secale cereale, Setaria viridis and Triticum aestivum were placed in 26-cm plastic pans containing a pasteurized sandy loam soil (pH 6.5, 1% organic matter). Plantings were maintained in the greenhouse for 18-28 days at which time the postemergence treatments were applied using a nonphytotoxic solvent as the carrier for the herbicide. The preemergence segment of the test was seeded immediately before herbicide application using Bromus tectorum, Kochia scoparia, Polygonum convolvulus, Salsoa kali, Avena fatua, Convolvulus arvensis, Secale cereale, Setaria viridis, Aegilops cylindrica, Amaranthus retroflexus, Chenopodium album, Hordeum vulgare, Triticum aestivum, Sorghum bicolor, and Zea mays. All treatments were maintained in the greenhouse for an additional 21 days at which time visual assessment of weed control was determined using a scale of 0 to 100 for each species where 0 represented no control and 100 represented complete control.

Setaria viridis = assay: Test 1 greenhouse, preemergence; assay type: in vivo; settings: 21 days, scale 0-100
Description: as §1

Sorghum bicolor = assay: Test 1 greenhouse, preemergence; assay type: in vivo; settings: 21 days, scale 0-100
Description: as §1

Salsoa kali = assay: Test 1 greenhouse, preemergence; assay type: in vivo; settings: 21 days, scale 0-100
Description: as §1

Amaranthus retroflexus = assay: Test 1 greenhouse, preemergence; assay type: in vivo; settings: 21 days, scale 0-100
Description: as §1

Chenopodium album = assay: Test 1 greenhouse, preemergence; assay type: in vivo; settings: 21 days, scale 0-100
Description: as §1

Convolvulus arvensis = assay: Test 1 greenhouse, preemergence; assay type: in vivo; settings: 21 days, scale 0-100
Description: as §1

Hordeum vulgare = assay: Test 1 greenhouse, preemergence; assay type: in vivo; settings: 21 days, scale 0-100
Description: as §1

Avena fatua = assay: Test 1 greenhouse, preemergence; assay type: in vivo; settings: 21 days, scale 0-100
Description: as §1

Bromus tectorum = assay: Test 1 greenhouse, preemergence; assay type: in vivo; settings: 21 days, scale 0-100
Description: as §1

Zea mays = assay: Test 1 greenhouse, preemergence; assay type: in vivo; settings: 21 days, scale 0-100
Description: as §1

Triticum aestivum = assay: Test 1 greenhouse, preemergence; assay type: in vivo; settings: 21 days, scale 0-100
Description: as §1

Kochia scoparia = assay: Test 1 greenhouse, preemergence; assay type: in vivo; settings: 21 days, scale 0-100
Description: as §1

Secale cereale = assay: Test 1 greenhouse, preemergence; assay type: in vivo; settings: 21 days, scale 0-100
Description: as §1

Aegilops cylindrica = assay: Test 1 greenhouse, preemergence; assay type: in vivo; settings: 21 days, scale 0-100
Description: as §1

Wild radish = assay: Test 7 postemergence; assay type: in vivo, Raphanus raphanistruna; settings: scale 0-100
Description: (§2) Individual 11.4-cm plastic pots filled with planting medium were seeded with rape, wild radish (Raphanus raphanistruna). tansy mustard (Descurainia pinnata), ball mustard (Neslia paniculata), black mustard (Brassica nigra), yellow mustard, brown mustard, lentils, safflower, flax, sunflower, peanut, vetch, alfalfa, field bean, pea, violet (Viola spp), Kochia (Kochia spp), Russian thistle (Salsola spp), Matricaria spp, groundsel (Senecio spp), shepherdspurse (Capsella bursa-pastoris), nightshade (Solanum spp), sowthistle (Sonchus spp), sugar beet, wheat, "Bonanza" barley and "Morex" barley, Kentucky bluegrass (Poa pratensis), red clover (Trifolium pratense), dandelion (Taraxacum spp) and buckhorn plantain (Plantago lanceolata).
(§3) Plants were treated postemergence with the compound formulated with a non-phytotoxic carrier. Plants were visually rated 18 days after treatment (DAT). Response ratings were based on the scale of 0 to 100 where 0 = no effect, 20 = minimal injury and 100 = complete control.

Tansy mustard = assay: Test 7 postemergence; assay type: in vivo, Descurainia pinnata; settings: scale 0-100
Description: as §2, §3

Nightshade = assay: Test 7 postemergence; assay type: in vivo, Solanum spp; settings: scale 0-100
Description: as §2, §3

## COC(=O)c1cccnc1S(=O)(=O)NC(=O)Nc1nc(OC)cc(OC)n1 [Compound I, 2-[[(4,6-dimethoxypyrimidin-2-yl)aminocarbonyl]aminosulfonyl]-3-pyridinecarboxylic acid, methyl ester]
Polygonum convolvulus; 4 g/ha
  visual assessment of weed control: 20
Polygonum convolvulus; 8 g/ha
  visual assessment of weed control: 20
Polygonum convolvulus; 16 g/ha
  visual assessment of weed control: 80
Polygonum convolvulus; 32 g/ha
  visual assessment of weed control: 80
Polygonum convolvulus; 64 g/ha
  visual assessment of weed control: 80
Polygonum convolvulus; 125 g/ha
  visual assessment of weed control: 100
Setaria viridis; 4 g/ha
  visual assessment of weed control: 20
Setaria viridis; 8 g/ha
  visual assessment of weed control: 30
Setaria viridis; 16 g/ha
  visual assessment of weed control: 50
Setaria viridis; 32 g/ha
  visual assessment of weed control: 70
Setaria viridis; 64 g/ha
  visual assessment of weed control: 90
Setaria viridis; 125 g/ha
  visual assessment of weed control: 100
Sorghum bicolor; 4 g/ha
  visual assessment of weed control: 90
Sorghum bicolor; 8 g/ha
  visual assessment of weed control: 100
Sorghum bicolor; 16 g/ha
  visual assessment of weed control: 100
Sorghum bicolor; 32 g/ha
  visual assessment of weed control: 100
Sorghum bicolor; 64 g/ha
  visual assessment of weed control: 100
Sorghum bicolor; 125 g/ha
  visual assessment of weed control: 100
Salsoa kali; 4 g/ha
  visual assessment of weed control: 50
Salsoa kali; 8 g/ha
  visual assessment of weed control: 70
Salsoa kali; 16 g/ha
  visual assessment of weed control: 70
Salsoa kali; 32 g/ha
  visual assessment of weed control: 80
Salsoa kali; 64 g/ha
  visual assessment of weed control: 100
Salsoa kali; 125 g/ha
  visual assessment of weed control: 100
Amaranthus retroflexus; 4 g/ha
  visual assessment of weed control: 70
Amaranthus retroflexus; 8 g/ha
  visual assessment of weed control: 90
Amaranthus retroflexus; 16 g/ha
  visual assessment of weed control: 90
Amaranthus retroflexus; 32 g/ha
  visual assessment of weed control: 100
Amaranthus retroflexus; 64 g/ha
  visual assessment of weed control: 100
Amaranthus retroflexus; 125 g/ha
  visual assessment of weed control: 100
Chenopodium album; 4 g/ha
  visual assessment of weed control: 60
Chenopodium album; 8 g/ha
  visual assessment of weed control: 90
Chenopodium album; 16 g/ha
  visual assessment of weed control: 90
Chenopodium album; 32 g/ha
  visual assessment of weed control: 100
Chenopodium album; 64 g/ha
  visual assessment of weed control: 100
Chenopodium album; 125 g/ha
  visual assessment of weed control: 100
Convolvulus arvensis; 4 g/ha
  visual assessment of weed control: 20
Convolvulus arvensis; 8 g/ha
  visual assessment of weed control: 40
Convolvulus arvensis; 16 g/ha
  visual assessment of weed control: 90
Convolvulus arvensis; 32 g/ha
  visual assessment of weed control: 90
Convolvulus arvensis; 64 g/ha
  visual assessment of weed control: 100
Convolvulus arvensis; 125 g/ha
  visual assessment of weed control: 100
Hordeum vulgare; 4 g/ha
  visual assessment of weed control: 50
Hordeum vulgare; 8 g/ha
  visual assessment of weed control: 60
Hordeum vulgare; 16 g/ha
  visual assessment of weed control: 70
Hordeum vulgare; 32 g/ha
  visual assessment of weed control: 80
Hordeum vulgare; 64 g/ha
  visual assessment of weed control: 80
Hordeum vulgare; 125 g/ha
  visual assessment of weed control: 90
Avena fatua; 4 g/ha
  visual assessment of weed control: 0
Avena fatua; 8 g/ha
  visual assessment of weed control: 40
Avena fatua; 16 g/ha
  visual assessment of weed control: 50
Avena fatua; 32 g/ha
  visual assessment of weed control: 60
Avena fatua; 64 g/ha
  visual assessment of weed control: 90
Avena fatua; 125 g/ha
  visual assessment of weed control: 100
Bromus tectorum; 4 g/ha
  visual assessment of weed control: 50
Bromus tectorum; 8 g/ha
  visual assessment of weed control: 70
Bromus tectorum; 16 g/ha
  visual assessment of weed control: 80
Bromus tectorum; 32 g/ha
  visual assessment of weed control: 90
Bromus tectorum; 64 g/ha
  visual assessment of weed control: 90
Bromus tectorum; 125 g/ha
  visual assessment of weed control: 100
Zea mays; 4 g/ha
  visual assessment of weed control: 40
Zea mays; 8 g/ha
  visual assessment of weed control: 50
Zea mays; 16 g/ha
  visual assessment of weed control: 90
Zea mays; 32 g/ha
  visual assessment of weed control: 90
Zea mays; 64 g/ha
  visual assessment of weed control: 90
Zea mays; 125 g/ha
  visual assessment of weed control: 100
Triticum aestivum; 4 g/ha
  visual assessment of weed control: 70
Triticum aestivum; 8 g/ha
  visual assessment of weed control: 100
Triticum aestivum; 16 g/ha
  visual assessment of weed control: 100
Triticum aestivum; 32 g/ha
  visual assessment of weed control: 100
Triticum aestivum; 64 g/ha
  visual assessment of weed control: 100
Triticum aestivum; 125 g/ha
  visual assessment of weed control: 100
Kochia scoparia; 4 g/ha
  visual assessment of weed control: 80
Kochia scoparia; 8 g/ha
  visual assessment of weed control: 80
Kochia scoparia; 16 g/ha
  visual assessment of weed control: 100
Kochia scoparia; 32 g/ha
  visual assessment of weed control: 100
Kochia scoparia; 64 g/ha
  visual assessment of weed control: 100
Kochia scoparia; 125 g/ha
  visual assessment of weed control: 100
Secale cereale; 4 g/ha
  visual assessment of weed control: 20
Secale cereale; 8 g/ha
  visual assessment of weed control: 30
Secale cereale; 16 g/ha
  visual assessment of weed control: 40
Secale cereale; 32 g/ha
  visual assessment of weed control: 70
Secale cereale; 64 g/ha
  visual assessment of weed control: 80
Secale cereale; 125 g/ha
  visual assessment of weed control: 90
Aegilops cylindrica; 4 g/ha
  visual assessment of weed control: 30
Aegilops cylindrica; 8 g/ha
  visual assessment of weed control: 50
Aegilops cylindrica; 16 g/ha
  visual assessment of weed control: 60
Aegilops cylindrica; 32 g/ha
  visual assessment of weed control: 80
Aegilops cylindrica; 64 g/ha
  visual assessment of weed control: 100
Aegilops cylindrica; 125 g/ha
  visual assessment of weed control: 100
Wild radish; 16 g/ha
  Plant Injury Rating 18 DAT: 100
Wild radish; 32 g/ha
  Plant Injury Rating 18 DAT: 100
Tansy mustard; 16 g/ha
  Plant Injury Rating 18 DAT: 100
Tansy mustard; 32 g/ha
  Plant Injury Rating 18 DAT: 100
Nightshade; 16 g/ha
  Plant Injury Rating 18 DAT: 50
Nightshade; 32 g/ha
  Plant Injury Rating 18 DAT: 60
